Experiments:
TDO = TDO (Homo sapiens, UniProt P48775); experiment: A172 kynurenine cell-based assay; parameters: This assay utilised cancer cells which expressed either TDO or IDO; endogenous in cells; host or cells: A172 (human glioblastoma); settings: A172 human glioblastoma cells, 48 hours, 500 μM L-tryptophan; read-out: A172 Kynurenine cell based assay pIC50 (converted)
Method: (§1) Exemplary compounds of the invention were prepared, and tested to determine their effect as TDO and/or IDO inhibitors. Two different assays were employed: 1. a cell-based assay for detecting the effect of test compounds on kynurenine production in two different cancer cell types. This assay utilised cancer cells which expressed either TDO or IDO and as such was used as a means of testing compound activity at these two enzymes in a cell-based context. 2. a TDO and IDO biochemical coupled assay which utilised recombinantly produced and purified TDO and IDO enzymes in combination with the enzyme formamidase. This coupled enzyme system allowed conversion of N-formylkynurenine produced by TDO or IDO activity to kynurenine which was then quantified by fluorescence following addition of Erhlich's Reagent The protocols for these are set out below.
(§2) Cell Based Assay for Detection of Kynurenine Produced by TDO and/or IDO
(§3) A172 (human glioblastoma) and SKOV3 (human ovarian adenocarcinoma) cells were seeded in a 96 well plate at 30,000 or 40,000 cells per well respectively in phenol red-free RPMI supplemented with 10% FCS, 2 mM L-glutamine and 500 μM L-tryptophan. IDO expression was induced in the SKOV3 cells by the addition of 500 ng/ml IFN-γ. Cells were incubated at 37° C. with or without the addition of test compound. After 48 hours, the cells were removed by centrifugation and Erhlich's reagent was added to the supernatant. The Erhlich's reagent was incubated for 5 minutes before the absorbance was read at 490 nm.

IDO = IDO (Homo sapiens, UniProt P14902); experiment: SKOV3 kynurenine cell-based assay (IDO induced by IFN-γ); parameters: IDO expression was induced in the SKOV3 cells by the addition of 500 ng/ml IFN-γ; endogenous in cells; host or cells: SKOV3 (human ovarian adenocarcinoma), induced with IFN-γ; settings: SKOV3 human ovarian adenocarcinoma cells, 500 ng/ml IFN-γ, 48 hours, 500 μM L-tryptophan; read-out: SKOV3 Kynurenine cell based assay pIC50 (converted)
IDO, sequence (P14902 whole entry): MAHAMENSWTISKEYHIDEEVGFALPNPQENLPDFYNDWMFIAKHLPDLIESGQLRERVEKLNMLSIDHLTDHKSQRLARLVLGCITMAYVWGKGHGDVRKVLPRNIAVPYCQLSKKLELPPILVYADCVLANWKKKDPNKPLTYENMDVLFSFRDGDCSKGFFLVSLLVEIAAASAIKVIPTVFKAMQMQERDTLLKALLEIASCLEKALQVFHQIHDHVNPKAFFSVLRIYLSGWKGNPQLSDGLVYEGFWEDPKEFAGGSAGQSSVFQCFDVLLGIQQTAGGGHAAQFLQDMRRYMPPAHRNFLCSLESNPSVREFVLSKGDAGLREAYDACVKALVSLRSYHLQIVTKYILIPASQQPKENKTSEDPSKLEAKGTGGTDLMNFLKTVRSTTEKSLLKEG
Method: as §1, §2, §3

TDO, sequence (P48775 whole entry): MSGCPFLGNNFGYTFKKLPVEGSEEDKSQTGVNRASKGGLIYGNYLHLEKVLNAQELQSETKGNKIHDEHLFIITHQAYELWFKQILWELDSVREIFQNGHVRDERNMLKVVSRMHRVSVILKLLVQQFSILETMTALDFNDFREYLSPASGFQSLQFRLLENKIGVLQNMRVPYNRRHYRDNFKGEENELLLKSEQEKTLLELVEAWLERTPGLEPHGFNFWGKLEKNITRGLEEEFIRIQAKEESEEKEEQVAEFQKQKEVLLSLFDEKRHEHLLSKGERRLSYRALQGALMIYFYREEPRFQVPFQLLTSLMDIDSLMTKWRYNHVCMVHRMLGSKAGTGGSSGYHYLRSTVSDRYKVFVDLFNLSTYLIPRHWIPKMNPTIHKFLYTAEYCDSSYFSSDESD

| Compound | IC50 (TDO) | IC50 (IDO) |
| --- | --- | --- |
| CS(=O)(=O)N1CCC(c2cc(C(F)(F)F)cc3[nH]ncc23)CC1 [Compound 100] | < 3.16 µM | 3.24 to 31.6 µM |
| CS(=O)(=O)N1CCN(c2cc(C3CC3)cc3[nH]ncc23)CC1 [Compound 101] | 3.24 to 31.6 µM | > 100 µM |
| C[C@@H]1CN(c2cc(Cl)cc3[nH]ncc23)C[C@@H](C)N1S(C)(=O)=O [Compound 102] | < 3.16 µM | 3.24 to 31.6 µM |
| CC(=O)N1[C@H](C)CN(c2cc(Cl)cc3[nH]ncc23)C[C@H]1C [Compound 103] | < 3.16 µM | > 100 µM |
| CC(=O)N1CCN(c2cc(Cl)cc3c2cnn3C)CC1(C)C [Compound 104] | 3.24 to 31.6 µM | 32.4 to 100 µM |
| Cn1ncc2c(N3CCN(S(C)(=O)=O)C(C)(C)C3)cc(Cl)cc21 [Compound 105] | > 100 µM | 32.4 to 100 µM |
| O=C(C1CC1)N1CCN(c2cc(Cl)cc3[nH]ncc23)CC1 [Compound 107] | < 3.16 µM | 3.24 to 31.6 µM |
| CC(C)C(=O)N1CCN(c2cc(Cl)cc3[nH]ncc23)CC1 [Compound 108] | < 3.16 µM | 3.24 to 31.6 µM |
| CCC(=O)N1CCN(c2cc(Cl)cc3[nH]ncc23)CC1 [Compound 109] | < 3.16 µM | 3.24 to 31.6 µM |
| NC(=O)N1CCN(c2cc(Cl)cc3[nH]ncc23)CC1 [Compound 110] | < 3.16 µM | 3.24 to 31.6 µM |
| CC(C)(O)C(=O)N1CCN(c2cc(Cl)cc3[nH]ncc23)CC1 [Compound 111] | < 3.16 µM | 3.24 to 31.6 µM |
| COCC(=O)N1CCN(c2cc(Cl)cc3[nH]ncc23)CC1 [Compound 112] | < 3.16 µM | 3.24 to 31.6 µM |
| CC(=O)N1[C@H](C)CN(c2cc(Cl)cc3[nH]ncc23)C[C@@H]1C [Compound 113] | < 3.16 µM | 3.24 to 31.6 µM |
| CNS(=O)(=O)N1CCN(c2cc(Cl)cc3[nH]ncc23)CC1 [Compound 114] | < 3.16 µM | 3.24 to 31.6 µM |
| O=S(=O)(Cc1ccccc1)N1CCC(c2cc(Cl)cc3[nH]ncc23)CC1 [Compound 115] | < 3.16 µM | 3.24 to 31.6 µM |
| O=C(N1CCN(c2cc(Cl)cc3[nH]ncc23)CC1)C1(O)CC1 [Compound 116] | < 3.16 µM | 3.24 to 31.6 µM |
| CN(C1CCN(c2cc(Cl)cc3[nH]ncc23)CC1)S(C)(=O)=O [Compound 117] | < 3.16 µM | 3.24 to 31.6 µM |
| CC(C)(F)C(=O)N1CCN(c2cc(Cl)cc3[nH]ncc23)CC1 [Compound 118] | < 3.16 µM | 3.24 to 31.6 µM |
| CN(C)S(=O)(=O)N1CCN(c2cc(Cl)cc3[nH]ncc23)CC1 [Compound 119] | < 3.16 µM | 3.24 to 31.6 µM |
| CS(=O)(=O)N1CCN(c2cccc3c(N)noc23)CC1 [Compound 120] | > 100 µM | 3.24 to 31.6 µM |
| CC(=O)N1CCN(c2cc(C3CC3)cc3[nH]ncc23)CC1 [Compound 121] | 3.24 to 31.6 µM | > 100 µM |
| CN1CC2CN(c3cc(Cl)cc4[nH]ncc34)CCN2C1=O (centres unmarked) [Compound 122] | < 3.16 µM | 3.24 to 31.6 µM |
| CS(=O)(=O)N1CCC(O)(c2cc(Cl)cc3[nH]ncc23)CC1 [Compound 123] | < 3.16 µM | 3.24 to 31.6 µM |
| CS(=O)(=O)N1CCC(F)(c2cc(Cl)cc3[nH]ncc23)CC1 [Compound 124] | < 3.16 µM | 3.24 to 31.6 µM |
| OC1CCCN(c2cc(Cl)cc3[nH]ncc23)C1 (centres unmarked) [Compound 125] | < 3.16 µM | 32.4 to 100 µM |
| CC(=O)N1CCN(c2cc(C3CC3)cc3[nH]ncc23)CC1(C)C [Compound 126] | < 3.16 µM | 3.24 to 31.6 µM |
| CC1(C)CN(c2cc(C3CC3)cc3[nH]ncc23)CCN1S(C)(=O)=O [Compound 127] | < 3.16 µM | 3.24 to 31.6 µM |
| CC(=O)N1CC=C(c2cc(Br)cc3[nH]ncc23)CC1 [Compound 128] | < 3.16 µM | 3.24 to 31.6 µM |

| Compound | IC50 (TDO) | IC50 (IDO) |
| --- | --- | --- |
| O=C(CO)N1CCN(c2cc(Cl)cc3[nH]ncc23)CC1 [Compound 129] | < 3.16 µM | 3.24 to 31.6 µM |
| CN(CC1CCN(c2cc(Cl)cc3[nH]ncc23)CC1)S(C)(=O)=O [Compound 130] | < 3.16 µM | 3.24 to 31.6 µM |
| CS(=O)(=O)N1CCN(c2cc(C3CCCC3)cc3[nH]ncc23)CC1 [Compound 131] | > 100 µM | 32.4 to 100 µM |
| CN(C)C(=O)N1CCC(c2cc(Cl)cc3[nH]ncc23)CC1 [Compound 132] | < 3.16 µM | 3.24 to 31.6 µM |
| CC(=O)N1CCC(c2cc(C(F)(F)F)cc3[nH]ncc23)CC1(C)C (centres unmarked) [Compound 133] | < 3.16 µM | < 3.16 µM |
| C[C@@H]1CN(c2cc(Cl)cc3[nH]ncc23)C[C@H](C)N1S(C)(=O)=O [Compound 134] | < 3.16 µM | < 3.16 µM |
| CS(=O)(=O)N1CCN(c2cc(Cl)cc3[nH]nc(N)c23)CC1 [Compound 135] | 32.4 to 100 µM | 3.24 to 31.6 µM |
| CC(O)C(=O)N1CCN(c2cc(Cl)cc3[nH]ncc23)CC1 (centres unmarked) [Compound 136] | < 3.16 µM | 3.24 to 31.6 µM |
| O=S(=O)(c1ccccc1)N1CCC(c2cc(Cl)cc3[nH]ncc23)CC1 [Compound 138] | < 3.16 µM | 3.24 to 31.6 µM |
| CC(=O)N1CCN(c2cc(C3CCCC3)cc3[nH]ncc23)CC1 [Compound 139] | 32.4 to 100 µM | > 100 µM |
| CCCS(=O)(=O)N1CCC(c2cc(Cl)cc3[nH]ncc23)CC1 [Compound 140] | < 3.16 µM | 3.24 to 31.6 µM |
| CC(C)S(=O)(=O)N1CCC(c2cc(Cl)cc3[nH]ncc23)CC1 [Compound 141] | < 3.16 µM | 3.24 to 31.6 µM |
| OCCNc1cc(Cl)cc2[nH]ncc12 [Compound 142] | 3.24 to 31.6 µM | > 100 µM |
| O=S(=O)(C1CCCC1)N1CCC(c2cc(Cl)cc3[nH]ncc23)CC1 [Compound 143] | < 3.16 µM | 3.24 to 31.6 µM |
| CN1C(=O)NC2(CCN(c3cc(Cl)cc4[nH]ncc34)CC2)C1=O [Compound 144] | < 3.16 µM | < 3.16 µM |
| CC(C)c1cc(N2CCN(S(C)(=O)=O)C(C)(C)C2)c2cn[nH]c2c1 [Compound 145] | < 3.16 µM | 3.24 to 31.6 µM |
| CS(=O)(=O)N1CCN(c2cc(N3CCCC3)cc3[nH]ncc23)CC1 [Compound 146] | 32.4 to 100 µM | > 100 µM |
| CC(=O)N1CCN(c2cc(C(C)C)cc3[nH]ncc23)CC1(C)C [Compound 147] | 3.24 to 31.6 µM | 3.24 to 31.6 µM |
| CC1(C)CN(c2cc(C3CCCC3)cc3[nH]ncc23)CCN1S(C)(=O)=O [Compound 148] | 3.24 to 31.6 µM | 32.4 to 100 µM |
| CC(=O)N1CCN(c2cc(C3CCCC3)cc3[nH]ncc23)CC1(C)C [Compound 149] | 3.24 to 31.6 µM | 3.24 to 31.6 µM |
| CNC(=O)N1CCC(c2cc(Cl)cc3[nH]ncc23)CC1 [Compound 150] | < 3.16 µM | 3.24 to 31.6 µM |
| CS(=O)(=O)N1CCN(c2cc(Cl)cc3[nH]ncc23)c2ccccc21 [Compound 151] | > 100 µM | 3.24 to 31.6 µM |
| OCCc1cc(Cl)cc2[nH]ncc12 [Compound 152] | 3.24 to 31.6 µM | > 100 µM |
| CC(O)c1cc(Cl)cc2[nH]ncc12 (centres unmarked) [Compound 153] | < 3.16 µM | 32.4 to 100 µM |
| CC1(C)CC(c2cc(C(F)(F)F)cc3[nH]ncc23)CCN1S(C)(=O)=O (centres unmarked) [Compound 154] | < 3.16 µM | 3.24 to 31.6 µM |
| CNCCNc1cc(Cl)cc2[nH]ncc12 [Compound 156] | 3.24 to 31.6 µM | 32.4 to 100 µM |
| CS(=O)(=O)N1CCN(c2cc(-c3ncco3)cc3[nH]ncc23)CC1 [Compound 157] | > 100 µM | 32.4 to 100 µM |

From patent US10590086B2, “Pharmaceutical compound” (IOmet Pharma Ltd., priority 2014, dated 2020)
